Experimental data as given in patent publication US10774056B2, “Substituted piperazines as selective HDAC1,2 inhibitors” (REGENACY PHARMACEUTICALS, LLC, priority 2016, dated 2020).

Assays:
hERG = hERG (Homo sapiens (Human), UniProt Q12809); assay: hERG inhibition, whole-cell patch clamp; assay type: cell-based; settings: HEK293 cells stably transfected with hERG, tail current at -50 mV
Protocol: For hERG inhibition assays, the cells used were HEK293 cells stably transfected with hERG (cell line obtained from Cytocentrics Inc. 3463 Magic Drive San Antonio, Tex. 78229). Composition of External Solution: NaCl, 137 mM; KCl, 4 mM; MgCl2, 1.0 mM; CaCl2, 1.8 mM; HEPES 10 mM; Dextrose 11 mM; Adjusted to a pH of 7.4 with NaOH. Composition of Internal Solution: KCl, 130.0 mM; MgCl2, 1.0 mM; HEPES, 5.0 mM; EGTA, 5.0 mM; NaCl 7.0 mM. Adjusted to a pH of 7.2 using KOH. Test Concentrations: 0.1, 1, 10, 100 μM. Vehicle: DMSO. Experiments were performed at 34+/−1° C. Current was recorded using the whole-cell patch clamp technique on the Cytopatch automated platform. hERG current was elicited with the following voltage protocol: hERG current amplitude was measured as the peak current at −50 mV (tail current). […] Each cell served as its own control. Data are presented as the IC50 calculated by non-linear regression analysis.

[1] = tested on: CYP1A2, CYP2C9, CYP2C19, CYP3A4, CYP2D6; assay: Cyp inhibition in human liver microsomes (all isozymes); assay type: in vitro ADME
Protocol: For Cyp inhibition, human liver microsomes from BD Gentest were incubated with Compound 028 or Compound 032 (10, 3.33, 1.11, 0.37, 0.12, 0.04, 0.01 μM) and substrate (CYP1A2: Phenacetin at 30 μM; CYP2C9: Diclofenac at 10 μM; CYP2C19: S-Mephenytoin at 35 μM; CYP3A4: Midazolam at 5 μM and Testosterone at 80 μM; CYP2D6: Bufuralol at 10 μM) for the following incubation times: CYP1A2, 2C9, 2D6: 10 minutes, 37° C.; CYP2C19: 45 minutes, 37° C.; CYP3A4: 5 minutes, 37° C. Substrate conversion was measured by liquid chromatography/mass spectrometry/mass spectrometry (LC/MS/MS). Inhibition was calculated by curve fitting in Graph Pad Prism.

[2] = Rat cassette dosing pharmacokinetics (IV and PO); assay type: in vivo; settings: male SD rats, plasma
HDAC1 = HDAC1 (Homo sapiens (Human), UniProt Q13547); assay: HDAC enzyme assay; assay type: biochemical; settings: 10 min preincubation, 16 μM substrate
Sequence of HDAC1 (Q13547 whole entry): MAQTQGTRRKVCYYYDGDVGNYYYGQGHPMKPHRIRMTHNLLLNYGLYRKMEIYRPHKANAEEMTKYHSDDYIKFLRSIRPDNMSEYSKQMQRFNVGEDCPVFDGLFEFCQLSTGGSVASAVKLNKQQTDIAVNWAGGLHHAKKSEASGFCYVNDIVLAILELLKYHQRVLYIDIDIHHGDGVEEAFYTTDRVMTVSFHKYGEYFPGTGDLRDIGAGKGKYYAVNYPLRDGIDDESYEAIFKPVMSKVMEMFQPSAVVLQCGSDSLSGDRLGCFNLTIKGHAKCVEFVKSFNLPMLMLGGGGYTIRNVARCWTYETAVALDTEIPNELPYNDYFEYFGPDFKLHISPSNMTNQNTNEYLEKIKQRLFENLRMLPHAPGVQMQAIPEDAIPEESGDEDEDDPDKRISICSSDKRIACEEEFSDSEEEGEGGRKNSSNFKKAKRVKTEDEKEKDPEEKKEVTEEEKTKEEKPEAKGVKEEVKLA

Sequence of hERG (Q12809 whole entry): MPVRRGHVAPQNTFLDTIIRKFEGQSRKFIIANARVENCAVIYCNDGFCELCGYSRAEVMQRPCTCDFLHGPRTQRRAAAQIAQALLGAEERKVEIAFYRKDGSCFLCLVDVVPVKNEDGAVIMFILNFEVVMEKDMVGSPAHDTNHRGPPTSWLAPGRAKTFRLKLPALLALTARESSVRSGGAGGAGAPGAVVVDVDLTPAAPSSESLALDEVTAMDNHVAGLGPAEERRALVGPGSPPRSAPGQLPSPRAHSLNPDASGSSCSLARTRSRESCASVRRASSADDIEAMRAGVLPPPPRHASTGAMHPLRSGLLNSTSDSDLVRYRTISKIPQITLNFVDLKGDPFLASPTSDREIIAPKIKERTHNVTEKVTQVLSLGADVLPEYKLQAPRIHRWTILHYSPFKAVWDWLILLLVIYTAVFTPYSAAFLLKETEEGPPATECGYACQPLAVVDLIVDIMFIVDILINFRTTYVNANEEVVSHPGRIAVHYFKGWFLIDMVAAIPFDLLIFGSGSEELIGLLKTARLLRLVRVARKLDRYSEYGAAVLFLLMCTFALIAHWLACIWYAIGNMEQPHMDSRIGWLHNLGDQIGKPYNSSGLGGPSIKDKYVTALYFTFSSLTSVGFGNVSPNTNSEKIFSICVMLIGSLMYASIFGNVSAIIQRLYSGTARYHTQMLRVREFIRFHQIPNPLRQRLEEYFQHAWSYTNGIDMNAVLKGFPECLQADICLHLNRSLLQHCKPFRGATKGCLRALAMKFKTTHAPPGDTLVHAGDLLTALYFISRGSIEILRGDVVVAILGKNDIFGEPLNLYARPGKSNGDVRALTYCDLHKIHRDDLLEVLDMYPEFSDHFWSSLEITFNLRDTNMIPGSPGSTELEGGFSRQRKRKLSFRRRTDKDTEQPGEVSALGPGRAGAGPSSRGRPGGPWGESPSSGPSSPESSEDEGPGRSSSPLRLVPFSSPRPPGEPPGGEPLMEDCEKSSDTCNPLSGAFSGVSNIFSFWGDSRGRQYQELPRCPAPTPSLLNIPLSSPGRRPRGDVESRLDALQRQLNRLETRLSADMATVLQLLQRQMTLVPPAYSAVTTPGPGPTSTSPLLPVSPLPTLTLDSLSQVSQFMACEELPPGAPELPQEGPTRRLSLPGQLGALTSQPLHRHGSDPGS

Structure (SMILES) | IC50 (hERG) | IC50 [1] | AUC ([2]; PO 5 mg/kg) | Cmax ([2]; PO 5 mg/kg) | half-life ([2]; PO 5 mg/kg, read-out: PO T1/2 (converted)) | bioavailability ([2]; 5 mg/kg, oral AUC to IV AUC, dose adjusted) | IC50 (HDAC1)
CN1CCN(c2ncc(C(=O)Nc3cc(-c4cccs4)ccc3N)s2)CC1 [Compound 030] | 70 µM | > 10 µM | 15300 ng·h/mL | 944 ng/mL | 12.8 h | 170% | –
Nc1ccc(-c2ccccc2)cc1NC(=O)c1ncc(N2CCNCC2)s1 [Compound 049] | – | – | – | – | – | – | < 0.01 µM
